Data as given in PubChem BioAssay (NCI).
Several values for one entry are separate records, joined by “and”; a condition that tells them apart may be missing. Equal values may be shown once.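 Method: 48-hour compound exposure of cells in 96-well plates, five concentrations, linear interpolation of endpoints. Abbreviation: GI50, concentration required for 50% inhibition of growth. The concentration for full growth arrest is given as TGI.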

Assays:
Experiment in all cases: NCI anticancer screen, dose series, 48 h
HT29 colon = test system: HT29 colon
CCRF-CEM leukemia = test system: CCRF-CEM leukemia
ACHN renal = test system: ACHN renal
NCI-H522 lung = test system: NCI-H522 lung
SF-268 CNS = test system: SF-268 CNS
DU-145 prostate = test system: DU-145 prostate
T-47D breast = test system: T-47D breast

Row | SMILES | GI50 (HT29 colon) | TGI (HT29 colon) | GI50 (CCRF-CEM leukemia) | TGI (CCRF-CEM leukemia) | GI50 (ACHN renal) | TGI (ACHN renal) | GI50 (NCI-H522 lung) | TGI (NCI-H522 lung) | GI50 (SF-268 CNS) | TGI (SF-268 CNS) | GI50 (DU-145 prostate) | TGI (DU-145 prostate) | GI50 (T-47D breast) | TGI (T-47D breast)
1 | CCN(CC)CCNc1ccc(N=Nc2cnc3ccccc3c2)c2ccccc12 | 1.38 µM | 2.67 µM | 0.223 µM | 1.09 µM | 1.61 µM | 3.15 µM | 1.91 µM | 3.54 µM | 1.74 µM | 3.48 µM | 1.83 µM | 3.22 µM | 1.81 µM | 4.08 µM
2 | COc1ccc(-c2nsc3c2NC(=O)CC3c2cccc(F)c2)cc1 (configuration not stated) | 3.11 µM | > 100 µM | 4.89 µM | > 100 µM | 5.95 µM | > 100 µM | 3.39 µM | > 100 µM | 6.86 µM | > 100 µM | 5.29 µM | > 100 µM | 4.81 µM | > 100 µM
3 | Cc1c(C(=O)/C=C/c2ccc(Cl)cc2)nnn1-c1ccnc2c(C(F)(F)F)cccc12 | 8.24 µM | > 100 µM | 15.3 µM | > 100 µM | 51.6 µM | > 100 µM | 27.6 µM | > 100 µM | 21.5 µM | > 100 µM | > 100 µM | > 100 µM | > 100 µM | > 100 µM
4 | COc1ccc2[nH]cc(Cc3c[nH]c4ccc(OC)cc34)c2c1 | 17.9 µM | 32.3 µM | – | – | 20 µM | 43.9 µM | 25.5 µM | 77.3 µM | 22.7 µM | 62.5 µM | 15.2 µM | 34 µM | – | –
5 | N#Cc1ccc(O)c(C2=NCC(c3ccc(-c4ccccc4)cc3)O2)c1 (configuration not stated) | 0.866 µM | 24.1 µM | 0.264 µM | > 100 µM | 0.418 µM | 12.4 µM | 0.4 µM | 10.6 µM | 0.499 µM | 16.1 µM | 0.732 µM | 16 µM | 0.565 µM | 24.1 µM
6 | O=C(CCN1CCCC1)Nc1ccc2c(Nc3ccc(Br)cc3)c3ccccc3nc2c1 | – | – | 0.494 µM | 2.83 µM | 1.23 µM | 2.48 µM | – | – | 1.33 µM | 2.81 µM | 0.798 µM | 2.07 µM | – | –
7 | CC(C)c1ccc(C(c2c(O)c3ccccc3oc2=O)c2c(O)c3ccccc3oc2=O)cc1 | – | 40.2 µM | – | 36.2 µM | – | 86.7 µM | – | 45.6 µM | – | 66.6 µM | – | > 81.8 µM | – | > 100 µM
8 | COc1ccc(C(=O)/C=C/c2c(C(F)(F)F)nc3ccccn23)cc1OC | 0.786 µM | – | 0.46 µM | 22.1 µM | 2.6 µM | > 39.5 µM | 0.133 µM | 0.929 µM | 2.07 µM | > 24.7 µM | 1.3 µM | – | 1.78 µM | 6.21 µM
9 | COc1ccc(C2CC(c3ccc4ccccc4c3)=NN2c2nc(O)c(C3=c4cc(Cl)ccc4=NC3=O)s2)cc1 (configuration not stated) | 0.0307 µM and < 0.005 µM | 0.771 µM and 0.556 µM | 0.0362 µM and < 0.005 µM | 0.533 µM | 0.025 µM and < 0.005 µM | – | 0.0183 µM and < 0.005 µM | 0.0402 µM and < 0.005 µM | 0.0291 µM and < 0.005 µM | – | 0.0331 µM and < 0.005 µM | 0.147 µM and 0.2 µM | 0.0223 µM and < 0.005 µM | –
10 | CCOC(=O)Nc1cc2c(c(N)n1)N=C(c1ccccc1)CN2 | < 0.0001 µM | – | < 0.0001 µM | – | < 0.0001 µM | 21.6 µM | < 0.0001 µM | < 0.0001 µM | < 0.0001 µM | 34.8 µM | < 0.0001 µM | – | – | > 90.5 µM
11 | CN(C)c1ccc(/C=N/n2c(CCCCc3n[nH]c(=S)n3/N=C/c3ccc(N(C)C)cc3)n[nH]c2=S)cc1 | > 100 µM | > 100 µM | > 100 µM | > 100 µM | > 100 µM | > 100 µM | > 100 µM | > 100 µM | > 100 µM | > 100 µM | > 100 µM | > 100 µM | 0.022 µM | 17.3 µM
12 | CCOP(=O)(OCC)C(NC(c1ccccc1)c1ccccc1)c1ccsc1 (configuration not stated) | – | – | – | – | – | – | 25.2 µM | 74.5 µM | 15.5 µM | 36.2 µM | 19.1 µM | 35.5 µM | – | –
13 | CC(C)c1ccc(C(O)(C(=O)O)c2ccc(C(C)C)cc2)cc1 | – | > 100 µM | – | > 100 µM | – | > 100 µM | – | > 100 µM | – | > 100 µM | – | > 100 µM | – | > 100 µM
14 | COc1ccc(Cl)cc1Nc1nc(C(F)(F)F)ccc1C(=O)N/N=C/c1ccccc1Cl | 4.24 µM | > 100 µM | 0.446 µM | 2.79 µM | 2.01 µM | > 25.4 µM | 2.74 µM | 16 µM | 2.22 µM | > 23.2 µM | 3.94 µM | > 25.6 µM | 1.71 µM | 7.68 µM
15 | Cc1ccc2c(c1)C(=O)/C(=C/c1cccc(OCC(=O)c3ccc(Cl)cc3)c1)CS2 | 2.81 µM | 7.25 µM | 2.38 µM | 6.83 µM | 8.72 µM | 21.2 µM | 3.94 µM | 18.2 µM | 10.4 µM | 33.3 µM | 21.9 µM | > 100 µM | 5.67 µM | 26.5 µM
16 | NS(=O)(=O)c1ccc(-n2nc(-c3ccccc3)cc2-c2cc(O)ccc2O)cc1 | 74.8 µM | > 100 µM | > 100 µM | > 100 µM | 89.8 µM | > 100 µM | > 100 µM | > 100 µM | > 100 µM | > 100 µM | – | – | > 100 µM | > 100 µM
17 | Cc1nccc2c3ccc(OCc4cn(-c5ccc(Br)cc5)nn4)cc3n(CCCc3ccccc3)c12 | 2.9 µM | > 100 µM | 2.97 µM | > 100 µM | 1.23 µM | 3.52 µM | – | – | 2.17 µM | 5.85 µM | 5.2 µM | > 100 µM | > 100 µM | > 100 µM
18 | Cn1c2ccccc2c2c(=O)n(CCCC(=O)NCCc3cnc[nH]3)c3c(-c4ccccc4)nnn3c21 | 8.55 µM | 17.9 µM | 1.51 µM | > 50 µM | 9.74 µM | 17.9 µM | – | – | 11.7 µM | 31.6 µM | 6.88 µM | 13.8 µM | 10.4 µM | 25.1 µM
19 | O=C1NC(c2cccc3ccccc23)Nc2ccccc21 (configuration not stated) | 0.0256 µM and 0.0306 µM | 1.14 µM and 0.203 µM | 0.0296 µM | 0.538 µM | 0.0383 µM | > 54.7 µM | 0.0194 µM and 0.0497 µM | 0.0765 µM and 0.25 µM | 0.0485 µM | > 100 µM | 0.046 µM | 8.11 µM | – | –
